Measured values reported in patent US9661870B2, “Nanogel comprising water-soluble active ingredients” (DSM IP ASSETS B.V., priority 2012, dated 2017).

Experiments:
[1] = UV degradation of folic acid (450 nm fluorescence before and after UV radiation); format: physicochemical; conditions: for Degradation degree / IUV/I (ratio of FA fluorescence intensity after UV radiation to before): UV radiation pH 7.4
Excerpt: As mentioned above, folic acid is sensitive to UV radiation. Because of intramolecular fluorescence quenching, folic acid has an extremely low fluorescence quantum yield, approximately 0.005. Pterins, which is formed after the cleavage of the C9-N10 bond in the folic acid molecule, has an increased fluorescence peak around 445 nm. The fluorescence quantum yield of 6-formyl pterin (FPT) is nearly 0.1 and that of pterin-6-carboxylic acid (PCA) is about 0.2. The fluorescence in the region of 445 nm increases with the formation of FPT as a result of the C9-N10 bond cleavage followed by the photo-induced conversion of FPT to PCA [M. K. Off et al., Journal of Photochemistry and Photobiology B: Biology 80 (2005) 47-55].
The UV degradation of folic acid was investigated in this study. The folic acid/protein/polysaccharide nanogel solution at pH 4.0 containing 0.25 or 0.5 mM folic acid was placed in a 7 ml glass bottle at a distance of 30 cm from a UV radiometer (500 w, peak A=365 nm) for 1 h. Individual folic acid dissolved in 10 mM pH 7.4 phosphate buffer with FA concentration of 0.25 or 0.5 mM was also investigated. The mixture of 5 mg/ml protein and 0.25 mM folic acid at pH 7.4, and the mixture of 15 mg/ml polysaccharide and 0.25 mM folic acid at pH 7.4 were also investigated. After the UV radiation, the folic acid/protein/polysaccharide nanogel solution was adjusted to pH 7.4 to release folic acid. The released folic acid in the solution was isolated by ultrafiltration and was analyzed as described below. After 10 and 20 times dilution for 0.25 and 0.5 mM folic acid, respectively, the 450 nm fluorescence intensity of the ultrafiltrate excited at 348 nm was measured.
For individual folic acid solution, after the UV radiation, the fluorescence intensity at 450 nm increases 89 and 85 times when folic acid concentration was 0.25 and 0.5 mM, respectively. The average 87 times of the increase for the fluorescence intensity after the UV radiation indicates the degradation of the folic acid inside the glass bottle. […] Compared with the individual folic acid, the degradation of folic acid reduces to 30% and 22% in the presence of polysaccharide and protein at pH 7.4, respectively. Folic acid/protein/polysaccharide nanogels can effectively protect the folic acid from the degradation at pH 4.0; only 12% of the loaded folic acid was degraded after the same UV radiation. […] The released and isolated folic acid from folic acid/protein/polysaccharide nanogels was radiated by UV light. After the same radiation, the folic acid fluorescence changed as the folic acid solution prepared at pH 7.4 directly.
The UV degradation of folic acid was investigated. Compared with the individual folic acid, the degradation of folic acid reduces to 19% in the presence of pea protein (Table 4). Folic acid/pea protein/polysaccharide nanogels can effectively protect the folic acid from the degradation at pH 4.0; only 13% of the loaded folic acid was degraded after the same UV radiation.

[2] = Interaction of folic acid with soy protein, soy polysaccharide or complex nanogel at pH 7.4; free folic acid isolated by ultrafiltration; format: physicochemical; conditions: FA concentration in feed 0.5 mM
Procedure: Considering the solubility of folic acid, the interaction at pH 7.4 was investigated. The individual protein solution, individual polysaccharide solution, and the protein/polysaccharide complex nanogel solution were adjusted to pH 7.4 first. Then the folic acid, dissolved in 10 mM phosphate buffer pH 7.4, was added and the mixture was incubated under stirring at room temperature overnight. The final protein concentration in the mixture was 4 mg/ml and polysaccharide concentration was 12 mg/ml. The free folic acid in the mixture was isolated by a high-flow ultrafiltration membrane (cutoff molecular weight 3 kDa, MicroconYM-3, Millipore), and was collected in the ultrafiltrate. Individual folic acid solution was also passed through the ultrafiltration membrane; 97% of the folic acid (Table 1) in the ultrafiltrate confirms the recovery of the folic acid. The individual protein, individual polysaccharide, and protein/polysaccharide complex nanogel solutions were also passed through the ultrafiltration membrane; their UV spectra of the ultrafiltrates (FIG. 1) show the absorbance at UV region, indicating small peptides in the ultrafiltrates. The FA concentration in the ultrafiltrate was calculated by deducting the 280 nm absorbance shown in FIG. 1 from the 280 nm absorbance of the ultrafiltrate.

[3] = cited from earlier work
[4] = Table 3, FA in feed 0.25 mM, UV 1 h
[5] = Table 3, FA in feed 0.5 mM, UV 1 h

Compound	Degradation degree [1, 4]	IUV/I (ratio of FA fluorescence intensity after UV radiation to before) [1, 4]	IUV/I (ratio of FA fluorescence intensity after UV radiation to before) ([1]; Table 3, FA in feed 0.25 mM, UV 1 h, listed as folic acid)	Degradation degree [1, 5]	IUV/I (ratio of FA fluorescence intensity after UV radiation to before) [1, 5]	IUV/I (ratio of FA fluorescence intensity after UV radiation to before) ([1]; Table 3, FA in feed 0.5 mM, UV 1 h, listed as folic acid)	Degradation degree ([1]; Table 4, FA in feed 0.25 mM)	IUV/I (ratio of FA fluorescence intensity after UV radiation to before) ([1]; Table 4, FA in feed 0.25 mM)	average increase of the fluorescence intensity after the UV radiation ([1]; average of 0.25 and 0.5 mM FA, pH 7.4)	FA concentration in ultrafiltration [2]	Recovered FA in ultrafiltration [2]	Recovered FA in ultrafiltration ([2]; listed as folic acid)	pKa [3]
Nc1nc2ncc(CNc3ccc(C(=O)N[C@@H](CCC(=O)O)C(=O)O)cc3)nc2c(=O)[nH]1 [FA, folic acid]	100%	89 ± 3	89	100%	85 ± 2	85	100%	91	87 times	0.485 ± 0.01 mM	97 ± 2%	97%	4.7
O=C(O)CCCC[C@@H]1SC[C@@H]2NC(=O)N[C@@H]21 [biotin]	–	–	–	–	–	–	–	–	–	–	–	–	5.33
